Measured values as given in US7550469B2, “Heterocyclic amide derivatives and their use as dopamine D3 receptor ligands” (Aventis Pharmaceuticals Inc., priority 2001, dated 2009).
pKi: −log10 of the molar value. Where two headings read alike, the source gives them in different places.

Molecular target: T1, cloned human dopamine D3 receptors (Homo sapiens, UniProt P35462)
T1 construct: expressed in transfected cells; membrane homogenate
Test: [N-Methyl-3H]Spiroperidol binding to cloned human dopamine D3 receptors (Protocol 1)
Summary of the method: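 Radioligand displacement with [N-methyl-3H]spiroperidol used a physiological-salt Tris buffer (0.05 M, pH 7.7; NaCl 120 mM, KCl 5 mM, CaCl2 2 mM, MgCl2 1 mM) and membranes of a high-expressing stable CHO clone carrying human D3. Total ligand concentration came from measured added CPM; 0.1% ascorbic acid was optional for oxidizable compounds.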

[1] = the 21st table, read-out: D3 Ki
[2] = the 16th table, read-out: D3 Ki

T1 sequence (P35462 whole entry): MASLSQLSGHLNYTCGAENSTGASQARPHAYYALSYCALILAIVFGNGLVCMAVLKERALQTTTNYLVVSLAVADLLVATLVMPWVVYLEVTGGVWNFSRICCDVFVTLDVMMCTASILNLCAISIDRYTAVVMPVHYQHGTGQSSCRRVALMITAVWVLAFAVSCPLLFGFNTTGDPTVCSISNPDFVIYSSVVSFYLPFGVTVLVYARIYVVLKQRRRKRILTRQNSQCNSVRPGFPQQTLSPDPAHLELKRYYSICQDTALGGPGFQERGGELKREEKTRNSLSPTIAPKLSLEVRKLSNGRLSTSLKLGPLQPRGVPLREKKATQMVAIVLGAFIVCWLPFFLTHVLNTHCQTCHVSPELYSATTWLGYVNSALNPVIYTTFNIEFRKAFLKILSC

| pKi [1] | pKi (Table 2, read-out: D3K1) | pKi [2] | Structure (SMILES) | other results |
| --- | --- | --- | --- | --- |
| 6.81 | – | – | C[C@@H]1CN(c2csc3cc(F)ccc23)C[C@H](C)N1CCCCNC(=O)c1cccnc1Cl [compound 826948] | – |
| 7.09 | – | – | C[C@@H]1CN(c2csc3cc(C(F)(F)F)ccc23)C[C@H](C)N1CCCCNC(=O)c1cc2ccccc2n1C [compound 826950] | – |
| 7.38 | – | – | COc1ccc2[nH]c(C(=O)NCCCCN3[C@H](C)CN(c4csc5cc(C(F)(F)F)ccc45)C[C@@H]3C)cc2c1 [compound 826951] | – |
| 6.79 | – | – | C[C@@H]1CN(c2csc3cc(C(F)(F)F)ccc23)C[C@H](C)N1CCCCNC(=O)c1c[nH]c2ccccc12 [compound 826952] | – |
| 6.65 | – | – | C[C@@H]1CN(c2csc3cc(C(F)(F)F)ccc23)C[C@H](C)N1CCCCNC(=O)c1cccc2[nH]ccc12 [compound 826953] | – |
| 7.40 | – | – | C[C@@H]1CN(c2csc3cc(C(F)(F)F)ccc23)C[C@H](C)N1CCCCNC(=O)c1ccc2[nH]ccc2c1 [compound 826954] | – |
| 7.15 | – | – | C[C@@H]1CN(c2csc3cc(C(F)(F)F)ccc23)C[C@H](C)N1CCCCNC(=O)c1ccc2cc[nH]c2c1 [compound 826955] | – |
| 6.72 | – | – | C[C@@H]1CN(c2csc3cc(C(F)(F)F)ccc23)C[C@H](C)N1CCCCNC(=O)c1n[nH]c2ccccc12 [compound 826956] | – |
| 6.83 | – | – | C[C@@H]1CN(c2csc3cc(C(F)(F)F)ccc23)C[C@H](C)N1CCCCNC(=O)c1cc2ccccc2o1 [compound 826958] | – |
| 7.82 | – | – | COc1ccc2[nH]c(C(=O)NCCCCN3[C@H](C)CN(c4csc5cc(F)ccc45)C[C@@H]3C)cc2c1 [compound 826960] | – |
| 7.29 | – | – | C[C@@H]1CN(c2csc3cc(F)ccc23)C[C@H](C)N1CCCCNC(=O)c1cc2ccccc2n1C [compound 826961] | – |
| 7.10 | – | – | C[C@@H]1CN(c2csc3cc(F)ccc23)C[C@H](C)N1CCCCNC(=O)c1c[nH]c2ccccc12 [compound 826962] | – |
| 7.14 | – | – | C[C@@H]1CN(c2csc3cc(F)ccc23)C[C@H](C)N1CCCCNC(=O)c1cccc2[nH]ccc12 [compound 826963] | – |
| 7.49 | – | – | C[C@@H]1CN(c2csc3cc(F)ccc23)C[C@H](C)N1CCCCNC(=O)c1ccc2[nH]ccc2c1 [compound 826964] | – |
| 7.59 | – | – | C[C@@H]1CN(c2csc3cc(F)ccc23)C[C@H](C)N1CCCCNC(=O)c1ccc2cc[nH]c2c1 [compound 826965] | – |
| 7.11 | – | – | C[C@@H]1CN(c2csc3cc(F)ccc23)C[C@H](C)N1CCCCNC(=O)c1n[nH]c2ccccc12 [compound 826966] | – |
| 7.29 | – | – | C[C@@H]1CN(c2csc3cc(F)ccc23)C[C@H](C)N1CCCCNC(=O)c1cc2ccccc2o1 [compound 827036] | – |
| 6.97 | – | – | C[C@@H]1CN(c2csc3cc(C(F)(F)F)ccc23)C[C@H](C)N1CCCCNC(=O)c1cccs1 [compound 827037] | – |
| 6.81 | – | – | C[C@@H]1CN(c2csc3cc(C(F)(F)F)ccc23)C[C@H](C)N1CCCCNC(=O)c1cccc(Cl)c1 [compound 827038] | – |
| 6.42 | – | – | COc1cc(OC)cc(C(=O)NCCCCN2[C@H](C)CN(c3csc4cc(C(F)(F)F)ccc34)C[C@@H]2C)c1 [compound 827039] | – |
| 6.78 | – | – | C[C@@H]1CN(c2csc3cc(C(F)(F)F)ccc23)C[C@H](C)N1CCCCNC(=O)c1ccc(OC(F)(F)F)cc1 [compound 827040] | – |
| 6.45 | – | – | C[C@@H]1CN(c2csc3cc(C(F)(F)F)ccc23)C[C@H](C)N1CCCCNC(=O)c1cccc2ccccc12 [compound 827041] | – |

| pKi [1] | pKi (Table 2, read-out: D3K1) | pKi [2] | Structure (SMILES) | other results |
| --- | --- | --- | --- | --- |
| 6.95 | – | – | C[C@@H]1CN(c2csc3cc(C(F)(F)F)ccc23)C[C@H](C)N1CCCCNC(=O)c1ccc2ccccc2c1 [compound 827042] | – |
| 6.49 | – | – | C[C@@H]1CN(c2csc3cc(C(F)(F)F)ccc23)C[C@H](C)N1CCCCNC(=O)c1cccc(C(F)(F)F)c1 [compound 827043] | – |
| 6.73 | – | – | C[C@@H]1CN(c2csc3cc(C(F)(F)F)ccc23)C[C@H](C)N1CCCCNC(=O)c1cccc(F)c1 [compound 827044] | – |
| 7.01 | – | – | C[C@@H]1CN(c2csc3cc(C(F)(F)F)ccc23)C[C@H](C)N1CCCCNC(=O)c1cc2ccccc2s1 [compound 827045] | – |
| 7.24 | – | – | C[C@@H]1CN(c2csc3cc(C(F)(F)F)ccc23)C[C@H](C)N1CCCCNC(=O)c1cccs1 [compound 827046] | – |
| 7.19 | – | – | C[C@@H]1CN(c2csc3cc(F)ccc23)C[C@H](C)N1CCCCNC(=O)c1cccc(Cl)c1 [compound 827047] | – |
| 6.50 | – | – | COc1cc(OC)cc(C(=O)NCCCCN2[C@H](C)CN(c3csc4cc(F)ccc34)C[C@@H]2C)c1 [compound 827048] | – |
| 7.29 | – | – | C[C@@H]1CN(c2csc3cc(F)ccc23)C[C@H](C)N1CCCCNC(=O)c1ccc(OC(F)(F)F)cc1 [compound 827049] | – |
| 6.73 | – | – | C[C@@H]1CN(c2csc3cc(F)ccc23)C[C@H](C)N1CCCCNC(=O)c1cccc2ccccc12 [compound 827050] | – |
| 7.53 | – | – | C[C@@H]1CN(c2csc3cc(F)ccc23)C[C@H](C)N1CCCCNC(=O)c1ccc2ccccc2c1 [compound 827051] | – |
| 6.82 | – | – | C[C@@H]1CN(c2csc3cc(F)ccc23)C[C@H](C)N1CCCCNC(=O)c1cccc(C(F)(F)F)c1 [compound 827052] | – |
| 7.27 | – | – | C[C@@H]1CN(c2csc3cc(F)ccc23)C[C@H](C)N1CCCCNC(=O)c1cccc(F)c1 [compound 827053] | – |
| 7.36 | – | – | C[C@@H]1CN(c2csc3cc(F)ccc23)C[C@H](C)N1CCCCNC(=O)c1cc2ccccc2s1 [compound 827054] | – |
| – | 7.48 | 7.48 | O=C(NCCCCN1CCCN(c2csc3cc(F)ccc23)CC1)c1cc2cccc(F)c2o1 [compound 827120] | – |
| – | 7.67 | 7.67 | COc1cccc2cc(C(=O)NCCCCN3CCCN(c4csc5cc(F)ccc45)CC3)oc12 [compound 827121] | – |
| – | 8.22 | 8.22 | COc1ccc2cc(C(=O)NCCCCN3CCCN(c4csc5cc(F)ccc45)CC3)oc2c1 [compound 827122] | – |
| – | 6.97 | 6.97 | CCN(CC)c1ccc2cc(C(=O)NCCCCN3CCCN(c4csc5cc(F)ccc45)CC3)oc2c1 [compound 827123] | – |
| – | 7.78 | 7.78 | O=C(NCCCCN1CCCN(c2csc3cc(F)ccc23)CC1)c1cc2c(Cl)cc(Cl)cc2o1 [compound 827124] | – |
| – | 7.55 | 7.55 | COc1cc(Br)cc2cc(C(=O)NCCCCN3CCCN(c4csc5cc(F)ccc45)CC3)oc12 [compound 827125] | – |
| – | 7.13 | 7.13 | O=C(NCCCCN1CCCN(c2csc3cc(F)ccc23)CC1)c1cc2cc(OC(F)(F)F)ccc2o1 [compound 827127] | – |
| – | 7.72 | 7.72 | COc1cccc2oc(C(=O)NCCCCN3CCCN(c4csc5cc(F)ccc45)CC3)cc12 [compound 827128] | – |
| – | 8.11 | 8.11 | Cc1ccc2oc(C(=O)NCCCCN3CCCN(c4csc5cc(F)ccc45)CC3)cc2c1 [compound 827129] | – |

| pKi [1] | pKi (Table 2, read-out: D3K1) | pKi [2] | Structure (SMILES) | other results |
| --- | --- | --- | --- | --- |
| – | 7.81 | 7.81 | Cc1ccc2cc(C(=O)NCCCCN3CCCN(c4csc5cc(F)ccc45)CC3)oc2c1 [compound 827130] | – |
| – | 8.38 | 8.38 | COc1cc(C)c2cc(C(=O)NCCCCN3CCCN(c4csc5cc(F)ccc45)CC3)oc2c1OC [compound 827131] | – |
| – | 6.89 | 6.89 | CC(C)(C)c1cc(C(C)(C)C)c2oc(C(=O)NCCCCN3CCCN(c4csc5cc(F)ccc45)CC3)cc2c1 [compound 827132] | – |
| – | 7.90 | 7.90 | CCOc1cccc2cc(C(=O)NCCCCN3CCCN(c4csc5cc(F)ccc45)CC3)oc12 [compound 827133] | – |
| – | 7.21 | 7.21 | O=C(NCCCN1CCCN(c2csc3cc(F)ccc23)CC1)c1cccs1 [compound 827134] | – |
| – | 6.85 | 6.85 | O=C(NCCCN1CCCN(c2csc3cc(F)ccc23)CC1)c1cccc(Cl)c1 [compound 827135] | – |
| – | 6.57 | 6.57 | COc1cc(OC)cc(C(=O)NCCCN2CCCN(c3csc4cc(F)ccc34)CC2)c1 [compound 827136] | – |
| – | 6.78 | 6.78 | O=C(NCCCN1CCCN(c2csc3cc(F)ccc23)CC1)c1cccc2ccccc12 [compound 827138] | – |
| – | 6.88 | 6.88 | O=C(NCCCN1CCCN(c2csc3cc(F)ccc23)CC1)c1ccc2ccccc2c1 [compound 827139] | – |
| – | 7.00 | 7.00 | COc1ccccc1C(=O)NCCCN1CCCN(c2csc3cc(F)ccc23)CC1 [compound 827141] | – |
| – | 7.00 | 7.00 | O=C(NCCCN1CCCN(c2csc3cc(F)ccc23)CC1)c1cccc(F)c1 [compound 827142] | – |
| – | 6.91 | 6.91 | O=C(NCCCN1CCCN(c2csc3cc(F)ccc23)CC1)c1cc2ccccc2s1 [compound 827143] | – |
| – | 8.23 | 8.23 | O=C(NCCCCCN1CCCN(c2csc3cc(F)ccc23)CC1)c1cc(-c2ccco2)nc2ccccc12 [compound 827159] | – |
| 7.27 | – | – | CC1=C(C(=O)NCCCCN2[C@H](C)CN(c3csc4cc(F)ccc34)C[C@@H]2C)Cc2ccccc21 [compound 827255] | – |
| – | – | – | O=C(NC/C=C\CN1CCN(c2csc3cc(C(F)(F)F)ccc23)CC1)c1cc2ccccc2s1 [compound 827709] | pKi (read-out: D3K1): 7.55 |
| – | – | – | O=C(NC/C=C/CN1CCN(c2csc3cc(C(F)(F)F)ccc23)CC1)c1ccsc1 [compound 827710] | pKi (read-out: D3K1): 7.51 |
| – | – | – | O=C(NC/C=C/CN1CCN(c2csc3cc(C(F)(F)F)ccc23)CC1)C1CCC1 [compound 827711] | pKi (read-out: D3K1): 6.64 |
| – | – | – | O=C(NC/C=C/CN1CCN(c2csc3cc(C(F)(F)F)ccc23)CC1)C1CCCC1 [compound 827712] | pKi (read-out: D3K1): 7.18 |
| – | – | – | O=C(NC/C=C/CN1CCN(c2csc3cc(C(F)(F)F)ccc23)CC1)c1ccccn1 [compound 827713] | pKi (read-out: D3K1): 7.19 |
| – | – | – | O=C(NC/C=C/CN1CCN(c2csc3cc(C(F)(F)F)ccc23)CC1)c1cccnc1 [compound 827714] | pKi (read-out: D3K1): 7.37 |
| – | – | – | O=C(NC/C=C/CN1CCN(c2csc3cc(C(F)(F)F)ccc23)CC1)c1ccccc1 [compound 827715] | pKi (read-out: D3K1): 7.62 |
| – | – | – | O=C(NC/C=C/CN1CCN(c2csc3cc(C(F)(F)F)ccc23)CC1)c1cc(F)cc(F)c1 [compound 827716] | pKi (read-out: D3K1): 7.01 |
